Target: thioredoxin reductase (TrxR, TVAG_474980) (Trichomonas vaginalis, UniProt A0A8U0WQ27)
Test: DTNB reduction assay with NADPH, recombinant TrxR and Trx, absorbance at […] nm
Assay type: biochemical

`CC(=O)OC[C@H]1O[C@@H]([S-])[C@H](OC(C)=O)[C@@H](OC(C)=O)[C@@H]1OC(C)=O.CCP(CC)CC.[Au+]` [AF, auranofin] showed an IC50 of 85 nM.
